IC50 data for 37 compounds are collected here from patent US8901147B2, “Bi-heteroaryl compounds as Vps34 inhibitors” (Novartis AG, priority 2010, dated 2014).

The target of the test is recombinant human Vps34 (Homo sapiens, UniProt Q8NEB9). Nature of the test: Vps34 KinaseGlo assay. In kind it is biochemical. Conditions: KinaseGlo luminescence ATP detection; PI/OG substrate; 1 μM ATP; room temperature; 8 concentrations, n=2. How it is done:
It was then resuspended in 3% OctylGlucoside by vortexing and stored at 4° C. 5 μL of a mix of PI/OG with recombinant human Vps34 were added. Kinase reactions were started by addition of 5 μl of ATP-mix containing in a final volume 10 μL 10 mM TRIS-HCl pH 7.5, 3 mM MgCl2, 50 mM NaCl, 0.05% CHAPS, 1 mM DTT and 1 μM ATP, and occurred at room temperature. Reactions were stopped with 10 μl of KinaseGlo and plates were read 10 minutes later in a Synergy2 reader using an integration time of 0.1 seconds per well.
Background: Kinase-Glo measures the ATP left after a reaction by luminescence.

Sequence of recombinant human Vps34 (Q8NEB9 whole entry): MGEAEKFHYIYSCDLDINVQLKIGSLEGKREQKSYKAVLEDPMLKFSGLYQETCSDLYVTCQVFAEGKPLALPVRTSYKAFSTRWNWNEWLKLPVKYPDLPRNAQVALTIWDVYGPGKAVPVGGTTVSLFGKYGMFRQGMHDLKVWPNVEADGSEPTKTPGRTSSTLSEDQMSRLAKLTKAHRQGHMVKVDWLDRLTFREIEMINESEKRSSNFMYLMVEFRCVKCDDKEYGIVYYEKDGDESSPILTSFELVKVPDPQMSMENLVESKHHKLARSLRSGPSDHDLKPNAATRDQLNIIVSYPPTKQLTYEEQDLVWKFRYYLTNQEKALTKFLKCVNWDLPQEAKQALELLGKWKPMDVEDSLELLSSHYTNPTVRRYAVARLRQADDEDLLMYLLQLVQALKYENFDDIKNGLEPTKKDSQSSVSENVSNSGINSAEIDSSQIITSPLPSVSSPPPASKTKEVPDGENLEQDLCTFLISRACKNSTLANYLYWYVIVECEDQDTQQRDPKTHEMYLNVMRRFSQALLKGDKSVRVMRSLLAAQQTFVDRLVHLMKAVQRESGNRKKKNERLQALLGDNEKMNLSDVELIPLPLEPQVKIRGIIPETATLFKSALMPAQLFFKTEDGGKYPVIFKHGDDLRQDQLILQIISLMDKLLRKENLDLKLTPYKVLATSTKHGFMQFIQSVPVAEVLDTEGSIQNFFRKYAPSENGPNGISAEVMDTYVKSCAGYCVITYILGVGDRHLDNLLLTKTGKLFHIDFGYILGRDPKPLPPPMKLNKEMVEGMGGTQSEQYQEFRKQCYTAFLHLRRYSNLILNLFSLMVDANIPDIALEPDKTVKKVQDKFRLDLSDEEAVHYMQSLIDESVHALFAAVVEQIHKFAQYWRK

The IC50 is the concentration that gives 50% inhibition. For the compound `CC(C)(CO)CNc1nccc(-c2cnc(N)nc2CC2CC2)n1` [Example 15g, 3-(2′-amino-4′-(cyclopropylmethyl)-4,5′-bipyrimidin-2-ylamino)-2,2-dimethylpropan-1-ol], the IC50 stood at 2230 nM. For `CSc1ncc(-c2ccnc(Nc3ccncc3)n2)c(CC2CC2)n1` [Example 11, 4′-(Cyclopropylmethyl)-2′-(methylsulfanyl)-N-pyridin-4-yl-4,5′-bipyrimidin-2-amine] the value was 106 nM. On to `CNc1ncc(-c2ccnc(Nc3ccc(OC)cc3)n2)c(CC2CC2)n1` [Example 14m, 4′-(cyclopropylmethyl)-N^2-(4-methoxyphenyl)-N^2′-methyl-4,5′-bipyrimidine-2,2′-diamine], for which the IC50 stood at 119 nM. As for `CNc1ncc(-c2ccnc(NC3CCCC3)n2)c(CC2CC2)n1` [Example 14h, N^2-cyclopentyl-4′-(cyclopropylmethyl)-N^2′-methyl-4,5′-bipyrimidine-2,2′-diamine], the IC50 is 1360 nM. As for `CC(C)(O)CNc1ncc(-c2ccnc(Nc3ccncc3)n2)c(CC2CC2)n1` [Example 10t, 1-(4′-(cyclopropylmethyl)-2-(pyridin-4-ylamino)-4,5′-bipyrimidin-2′-ylamino)-2-methylpropan-2-ol], the figure is 15 nM; as for `Cc1cc2cc(Nc3nccc(-c4cnc(N)nc4CC4CC4)n3)ccc2[nH]1` [Example 15w, 4′-(cyclopropylmethyl)-N^2-(2-methyl-1H-indol-5-yl)-4,5′-bipyrimidine-2,2′-diamine], 36 nM; as for `CC(C)(O)CNc1ncc(-c2ccnc(Nc3ccc(S(C)(=O)=O)cc3)n2)c(CC2CC2)n1` [Example 16d, 1-(4′-(cyclopropylmethyl)-2-(4-(methylsulfonyl)phenylamino)-4,5′-bipyrimidin-2′-ylamino)-2-methylpropan-2-ol], 26 nM. As for `Nc1ncc(-c2ccnc(Nc3ccncc3)n2)c(CO)n1` [Example 23, [2′-Amino-2-(pyridin-4-ylamino)-4,5′-bipyrimidin-4′-yl]methanol], the figure is 130 nM; as for `C[C@@H](CO)Nc1ncc(-c2ccnc(Nc3ccncc3)n2)c(CC2CC2)n1` [Example 10q, (S)-2-(4′-(cyclopropylmethyl)-2-(pyridin-4-ylamino)-4,5′-bipyrimidin-2′-ylamino)propan-1-ol], 53 nM; as for `CNc1ncc(-c2ccnc(Nc3ccc(OC)c(OC)c3)n2)c(CC2CC2)n1` [Example 14q, 4′-(cyclopropylmethyl)-N^2-(3,4-dimethoxyphenyl)-N^2′-methyl-4,5′-bipyrimidine-2,2′-diamine], 862 nM. `CNc1ncc(-c2ccnc(NC3CCN(C)CC3)n2)c(CC2CC2)n1` [Example 14r, 4′-(cyclopropylmethyl)-N^2′-methyl-N^2-(1-methylpiperidin-4-yl)-4,5′-bipyrimidine-2,2′-diamine]: the concentration for half-maximal inhibition (IC50) was determined as 1540 nM.

For `CNc1ncc(-c2ccnc(Nc3ccccc3)n2)c(CC2CC2)n1` [Example 14b, 4′-(cyclopropylmethyl)-N^2′-methyl-N^2-phenyl-4,5′-bipyrimidine-2,2′-diamine], the IC50 worked out at 286 nM. For the compound `c1cc(Nc2nccc(-c3cnc(NC4CCCCC4)nc3CC3CC3)n2)ccn1` [Example 12b, N^2′-cyclohexyl-4′-(cyclopropylmethyl)-N^2-(pyridin-4-yl)-4,5′-bipyrimidine-2,2′-diamine], the IC50 was 570 nM.

With `COc1ncc(-c2ccnc(Nc3ccncc3)n2)c(CC2CC2)n1` [Example 10u, 4′-(cyclopropylmethyl)-2′-methoxy-N-(pyridin-4-yl)-4,5′-bipyrimidin-2-amine], the 50% inhibitory concentration (IC50) was determined as 90.5 nM.

Consider `CC(C)(C)Nc1ncc(-c2ccnc(Nc3ccncc3)n2)c(CC2CC2)n1` [Example 10i, N^2′-tert-butyl-4′-(cyclopropylmethyl)-N^2-(pyridin-4-yl)-4,5′-bipyrimidine-2,2′-diamine], for which the IC50 was found to be 35 nM. As for `CC(C)(O)CNc1ncc(-c2ccnc(Nc3ccc(C#N)cc3)n2)c(CC2CC2)n1` [Example 16b, 4-(4′-(cyclopropylmethyl)-2′-(2-hydroxy-2-methylpropylamino)-4,5′-bipyrimidin-2-ylamino)benzonitrile], the figure is 25 nM. As for `Nc1ncc(-c2ccnc(NC3CCCOC3)n2)c(CC2CC2)n1` (stereo not shown) [Example 15d, 4′-(cyclopropylmethyl)-N2-(tetrahydro-2H-pyran-3-yl)-4,5′-bipyrimidine-2,2′-diamine], the figure is 1500 nM. As to `Cc1nc(N)ncc1-c1ccnc(Nc2ccncc2)n1` [Example 21, 4′-Methyl-N^2-pyridin-4-yl-[4,5′]bipyrimidinyl-2,2′-diamine], the IC50 stood at 22.2 nM. For `CS(=O)(=O)N[C@H]1CC[C@H](Nc2nccc(-c3cnc(N)nc3CC3CC3)n2)CC1` [Example 15b, N-((1r,4r)-4-(2′-amino-4′-(cyclopropylmethyl)-4,5′-bipyrimidin-2-ylamino)cyclohexyl)methanesulfonamide] the value was 199 nM; for `CC(CO)Nc1ncc(-c2ccnc(Nc3ccncc3)n2)c(CC2CC2)n1` (stereo not shown) [Example 10o, 2-(4′-(cyclopropylmethyl)-2-(pyridin-4-ylamino)-4,5′-bipyrimidin-2′-ylamino)propan-1-ol], 31.5 nM; for `c1cc(Nc2nccc(-c3cnc(NC4CCCC4)nc3CC3CC3)n2)ccn1` [Example 10e, N2′-cyclopentyl-4′-(cyclopropylmethyl)-N2-(pyridin-4-yl)-4,5′-bipyrimidine-2,2′-diamine], 78.5 nM. For `C[C@@H](Nc1ncc(-c2ccnc(Nc3ccncc3)n2)c(CC2CC2)n1)c1ccccc1` [Example 10h, (R)-4′-(cyclopropylmethyl)-N^2′-(1-phenylethyl)-N^2-(pyridin-4-yl)-4,5′-bipyrimidine-2,2′-diamine] the value was 258 nM; for `Nc1ncc(-c2ccnc(Nc3ccncc3)n2)c(COCc2ccccc2)n1` [Example 13, 4′-Benzyloxymethyl-N^2-pyridin-4-yl-[4,5′]bipyrimidinyl-2,2′-diamine], 7 nM.

As to `CNc1ncc(-c2ccnc(NC3CCC(N)CC3)n2)c(CC2CC2)n1` (stereo not shown) [Example 14j, N^2-(4-aminocyclohexyl)-4′-(cyclopropylmethyl)-N^2′-methyl-4,5′-bipyrimidine-2,2′-diamine], the half-maximal inhibitory concentration (IC50) is 411 nM. As for `c1cc(Nc2nccc(-c3cnc(NC4CCOCC4)nc3CC3CC3)n2)ccn1` [Example 10g, 4′-(cyclopropylmethyl)-N^2-(pyridin-4-yl)-N^2′-(tetrahydro-2H-pyran-4-yl)-4,5′-bipyrimidine-2,2′-diamine], the figure is 236 nM; as for `COCCNc1ncc(-c2ccnc(Nc3ccncc3)n2)c(CC2CC2)n1` [Example 10n, 4′-(cyclopropylmethyl)-N^2′-(2-methoxyethyl)-N^2-(pyridin-4-yl)-4,5′-bipyrimidine-2,2′-diamine], 31 nM.

As to `CNc1ncc(-c2ccnc(Nc3cnc4ccccc4c3)n2)c(CC2CC2)n1` [Example 14d, 4′-(cyclopropylmethyl)-N^2′-methyl-N^2-(quinolin-3-yl)-4,5′-bipyrimidine-2,2′-diamine], the half-inhibitory concentration (IC50) amounted to 133 nM. For `Nc1ncc(-c2ccnc(NCCc3c[nH]c4ccccc34)n2)c(CC2CC2)n1` [Example 15p, N^2-(2-(1H-indol-3-yl)ethyl)-4′-(cyclopropylmethyl)-4,5′-bipyrimidine-2,2′-diamine] the value was 122 nM; for `CC(=O)Nc1ccc(Nc2nccc(-c3cnc(N)nc3CC3CC3)n2)cc1` [Example 15n, N-(4-(2′-amino-4′-(cyclopropylmethyl)-4,5′-bipyrimidin-2-ylamino)phenyl)acetamide], 62 nM. For `Nc1ccc(Nc2nccc(-c3cnc(N)nc3CC3CC3)n2)cc1` [Example 15u, N^2-(4-aminophenyl)-4′-(cyclopropylmethyl)-4,5′-bipyrimidine-2,2′-diamine] the value was 104 nM. As for `CC(O)CNc1ncc(-c2ccnc(Nc3ccncc3)n2)c(CC2CC2)n1` (stereo not shown) [Example 10j, 1-(4′-(cyclopropylmethyl)-2-(pyridin-4-ylamino)-4,5′-bipyrimidin-2′-ylamino)propan-2-ol], the figure is 29 nM; as for `CCc1nc(NCC(C)(C)O)ncc1-c1ccnc(Nc2ccc(C#N)cc2)n1` [Example 37a, 4-(4′-ethyl-2′-(2-hydroxy-2-methylpropylamino)-4,5′-bipyrimidin-2-ylamino)benzonitrile], 31 nM. For the compound `Nc1ncc(-c2ccnc(Nc3ccc(Cl)cn3)n2)c(CC2CC2)n1` [Example 15v, N^2-(5-chloropyridin-2-yl)-4′-(cyclopropylmethyl)-4,5′-bipyrimidine-2,2′-diamine], the IC50 was found to be 193 nM. For `CNc1ncc(-c2ccnc(NC3CCC(O)CC3)n2)c(CC2CC2)n1` (stereo not shown) [Example 14k, 4-(4′-(cyclopropylmethyl)-2′-(methylamino)-4,5′-bipyrimidin-2-ylamino)cyclohexanol] the value was 857 nM. For `CC(=O)N[C@H]1CC[C@H](Nc2nccc(-c3cnc(N)nc3CC3CC3)n2)CC1` [Example 15a, N-((1r,4r)-4-(2′-amino-4′-(cyclopropylmethyl)-4,5′-bipyrimidin-2-ylamino)cyclohexyl)acetamide] the value was 577 nM; for `CNc1ncc(-c2ccnc(NC3CCOCC3)n2)c(CC2CC2)n1` [Example 14g, 4′-(cyclopropylmethyl)-N^2′-methyl-N^2-(tetrahydro-2H-pyran-4-yl)-4,5′-bipyrimidine-2,2′-diamine], 398 nM. For `CNc1ncc(-c2ccnc(N[C@H]3CC[C@H](C(=O)O)CC3)n2)c(CC2CC2)n1` [Example 14n, (1r,4r)-4-(4′-(cyclopropylmethyl)-2′-(methylamino)-4,5′-bipyrimidin-2-ylamino)cyclohexanecarboxylic acid] the value was 439 nM.
